Experimental data reported in US20220315631A1, “STAPLED BETA-CATENIN LIGANDS” (Ohio State Innovation Foundation, priority 2019, published 2022).
Values belong to the molecule of their own block, whether it stands above or below them. Positions of bridges follow the written chain, without caps; N, C: chain ends. Non-standard residues stand in square brackets, D forms with d. Residues, ends and D or L forms follow the SMILES beside them. Chains are numbered I, II in the order given. m‑xylene = 1,3-bis[(methylthio)methyl]benzene scaffold from m-xylene dibromide; 2Nal = N[C@@H](Cc1ccc2ccccc2c1)C(=O)O; Bta = N[C@@H](Cc1csc2ccccc12)C(=O)O; Tle = CC(C)(C)[C@H](N)C(=O)O; Dap = NC[C@H](N)C(=O)O; AEEA = NCCOCCOCC(=O)O; βAla = NCCC(=O)O

How the values were obtained:
MCF7 cells = experiment: MTT cell viability assay, MCF7 (Wnt-independent) cells; format: cell-based; settings: up to 20 μM
Procedure: (§1) MTT Assay. SW480 (Wnt-addicted) and MCF7 (Wnt-independent) cells were seeded in 96-well plate with 3×10^3 cells per well, and allowed to grow overnight. […] After that, 10 μL of an MTT stock solution (5 mg/mL) was added into each well and the plate was incubated at 37° C. for 4 h. 100 μL of SDS-HCl solubilizing solution was added and the plate was incubated at 37° C. overnight. The absorbance of the formazan product formed was measured at 570 nm on a Tecan microtiter plate reader. Cells were incubated with serially diluted compounds for 72 hours in the presence of 10% FBS. Data reported represent the mean±SD of 3 independent experiments.
(§2) Cell Viability Assay. Cell viability was determined using the MTT assay. […] Trypsin was neutralized with the addition of warm DPBS and cells were pelleted down at 200 g for 5 min at 4° C. […] Com-pounds were serially diluted in DPBS with standardized DMSO concentration (0.5% v/v) and added to each well. […] After that, 10 μL of MTT solution was added to each well, followed by incubation for 4 h at 37° C., 5% CO2. […] The next day, A565 was determined using a Tecan M1000 Infinite plate reader and absorbance values were standardized against cell-free wells and normalized to untreated control cells. Data was analyzed using GraphPad Prism v. […]

SW480 cells = format: cell-based
Procedure: as §1, §2

Human serum stability = format: in vitro ADME; settings: relative to peptide 9
Procedure: Human Serum Stability. […] After protein precipitation was complete, each aliquot was centrifuged (15000 g, 5 min, 4° C.) and analyzed by RP-HPLC. The percentage of remaining peptide at a given time point was determined by integrating the peak area and compared it to that of the untreated control (100%).

β-catenin = molecular target: T1, β-catenin (Homo sapiens, UniProt P35222); experiment: FP-based competition assay for binding to β-catenin; settings: for IC50: competition with FAM-labeled peptide 1 (10 nM), 50 nM GST-β-catenin, read-out: KD or IC50
T1 construct: cells harboring plasmid pGEX-β-catenin(133-665)52 were grown in LB medium; made in house; host or cells: E. coli BL21 (DE3)
T1 sequence (P35222 133-665): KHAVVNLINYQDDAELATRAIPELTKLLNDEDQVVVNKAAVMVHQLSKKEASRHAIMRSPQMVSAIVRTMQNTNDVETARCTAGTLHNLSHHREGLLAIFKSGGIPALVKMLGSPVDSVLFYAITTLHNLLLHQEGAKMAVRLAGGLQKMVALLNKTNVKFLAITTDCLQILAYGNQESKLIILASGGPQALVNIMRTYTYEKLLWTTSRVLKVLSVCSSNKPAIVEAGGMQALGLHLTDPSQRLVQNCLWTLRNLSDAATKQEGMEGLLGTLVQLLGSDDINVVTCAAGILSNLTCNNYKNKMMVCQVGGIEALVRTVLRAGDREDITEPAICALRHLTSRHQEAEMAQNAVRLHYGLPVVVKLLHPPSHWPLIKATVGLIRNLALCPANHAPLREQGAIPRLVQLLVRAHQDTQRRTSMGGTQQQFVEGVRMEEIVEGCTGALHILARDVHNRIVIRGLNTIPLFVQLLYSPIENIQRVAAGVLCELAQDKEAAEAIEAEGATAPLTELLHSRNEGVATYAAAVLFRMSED
Procedure: Samples were transferred into black-on-black 384-well non-binding microplates (Greiner) and FP was measured using a Tecan M1000 Infinite plate reader. The data were analyzed using GraphPad Prism v. 8.0 and normalized to FP values corresponding to fully bound/unbound probe. All binding values reported are the mean±SD of independent experiments.
Protein Purification. […] Cells were harvested by centrifugation and lysed in lysis buffer (20 mM Tris, pH 8.0, 150 mM NaCl, 2 mM DTT, 1% Triton-X100, 200 mM EDTA, 10 mg/mL PMSF, and 0.2 mg/mL lysozyme) on ice for 20 min, followed by sonication (8 s off, 2 s on, 1 min total, performed twice at 70% amplitude). The homogenate was centrifuged (13,000 g for 30 min at 4° C. and the clear supernatant was loaded onto an equilibrated glutathione-agarose column. After exhaustive washing with wash buffer (20 mM Tris, pH 7.4, 150 mM NaCl, 2 mM DTT), the bound GST-β-catenin was eluted with wash buffer supplemented with 10 mM glutathione, concentrated, and stored at −80° C. in 30% glycerol.

GST-β-catenin = molecular target: T2, GST-β-catenin (UniProt P35222 133-665); experiment: Table 7, binding to β-catenin; FP competition as for peptides 2-5 presumed
T2 construct: range 133-665; GST fusion purified on glutathione-agarose and used in the FP assays; also called GST-β-catenin(133-665); pGEX-β-catenin(133-665); not shown: glutathione S-transferase (GST) tag encoded by the pGEX plasmid
T2 sequence (looked up): T1 sequence (P35222 133-665)

Molecule: CC[C@H](C)[C@@H]1NC(=O)[C@@H](NC(=O)[C@H](CCC(=O)O)NC(=O)[C@@H]2CCCN2C(=O)[C@H](Cc2ccc(O)cc2)NC(=O)CNC(=O)CNC(C)=O)CC(=O)NCCCC[C@@H](C(=O)N[C@@H](Cc2c[nH]cn2)C(=O)N[C@@H](CC(C)C)C(=O)N[C@@H](CCC(N)=O)C(=O)N[C@@H](CCCNC(=N)N)C(=O)N[C@H](C(=O)N[C@H](C(=O)N[C@@H](CC(C)C)C(=O)NCCOCCOCC(=O)NCCOCCOCC(=O)N[C@@H](CNC(=O)[C@H](CCCNC(=N)N)NC(=O)[C@H](CCCNC(=N)N)NC(=O)[C@H](CCCNC(=N)N)NC(=O)[C@H](CCCNC(=N)N)NC(=O)[C@H](CCCNC(=N)N)NC(=O)[C@H](CCCNC(=N)N)NC(=O)[C@H](CCCNC(=N)N)NC(=O)[C@H](CCCNC(=N)N)NC(=O)[C@@H](N)CCCNC(=N)N)C(N)=O)[C@@H](C)CC)C(C)C)NC(=O)[C@H](CC(=O)O)NC(=O)[C@H](CC(C)C)NC1=O [peptide 5]
- effect on MCF7 cell viability (MCF7 cells): reduced the viability of MCF7 cells

Molecule: CC[C@H](C)[C@@H]1NC(=O)[C@@H](NC(=O)[C@H](CCC(=O)O)NC(=O)[C@@H]2CCCN2C(=O)[C@H](Cc2ccc(O)cc2)NC(=O)CNC(=O)CNC(C)=O)CC(=O)NCCCC[C@@H](C(=O)N[C@@H](Cc2c[nH]cn2)C(=O)N[C@@H](CC(C)C)C(=O)N[C@@H](CCC(N)=O)C(=O)N[C@@H](CCCNC(=N)N)C(=O)N[C@H](C(=O)N[C@H](C(=O)N[C@@H](CC(C)C)C(=O)NCCOCCOCC(=O)NCCOCCOCC(=O)N[C@@H](CNC(=O)CC[C@@H]2NC(=O)[C@@H](CCCNC(=N)N)NC(=O)[C@H](CCCNC(=N)N)NC(=O)[C@@H](CCCNC(=N)N)NC(=O)[C@H](CCCNC(=N)N)NC(=O)[C@H](Cc3ccc4ccccc4c3)NC(=O)[C@@H](Cc3ccccc3)NC2=O)C(N)=O)[C@@H](C)CC)C(C)C)NC(=O)[C@H](CC(=O)O)NC(=O)[C@H](CC(C)C)NC1=O [peptide 2] (I: Ac-GGYPEDILDKHLQRVIL[AEEA][AEEA][Dap]-NH2 / II: cyclo([2Nal]R[dR]R[dR]E[dF]); lactam I:6-I:10; amide I:20-II:6)
- EC50 (SW480 cells; MTT assay, read-out: EC50, viability / anti-proliferative activity against SW480 cells): 3700 nM

Molecule: CC[C@H](C)[C@@H]1NC(=O)[C@@H](NC(=O)[C@H](CCC(=O)O)NC(=O)[C@@H]2CCCN2C(=O)[C@H](Cc2ccc(O)cc2)NC(C)=O)CC(=O)NCCCC[C@@H](C(=O)N[C@@H](Cc2c[nH]cn2)C(=O)N[C@@H](CC(C)C)C(=O)N[C@@H](CCC(N)=O)C(=O)N[C@@H](CCCNC(=N)N)C(=O)N[C@H](C(=O)N[C@H](C(=O)N[C@@H](CC(C)C)C(N)=O)[C@@H](C)CC)C(C)(C)O)NC(=O)[C@H](CC(=O)O)NC(=O)[C@H](CC(C)C)NC1=O [Peptide 37]
- serum stability compared to peptide 9 (Human serum stability): identical
- binding affinity for β-catenin compared to peptide 9 (β-catenin; relative to peptide 9): identical

- lower affinity for β-catenin than peptide 2 (β-catenin; relative to peptide 2): ~10 fold
Molecule: CC[C@H](C)[C@@H]1NC(=O)[C@@H](NC(=O)[C@H](CCC(=O)O)NC(=O)[C@@H]2CCCN2C(=O)[C@H](Cc2ccc(O)cc2)NC(=O)CNC(=O)CNC(C)=O)CC(=O)NCCCC[C@@H](C(=O)N[C@@H](CC(=O)O)C(=O)N[C@@H](CC(C)C)C(=O)N[C@@H](CCC(N)=O)C(=O)N[C@@H](CCCNC(=N)N)C(=O)N[C@H](C(=O)N[C@@H](C)C(=O)N[C@@H](CC(C)C)C(=O)NCCOCCOCC(=O)NCCOCCOCC(=O)N[C@@H](CNC(=O)CC[C@@H]2NC(=O)[C@@H](CCCNC(=N)N)NC(=O)[C@H](CCCNC(=N)N)NC(=O)[C@@H](CCCNC(=N)N)NC(=O)[C@H](CCCNC(=N)N)NC(=O)[C@H](Cc3ccc4ccccc4c3)NC(=O)[C@@H](Cc3ccccc3)NC2=O)C(N)=O)C(C)C)NC(=O)[C@H](Cc2c[nH]cn2)NC(=O)[C@H](CC(C)C)NC1=O [peptide 3] (I: Ac-GGYPEDILHKDLQRVAL[AEEA][AEEA][Dap]-NH2 / II: cyclo([2Nal]R[dR]R[dR]E[dF]); lactam I:6-I:10 (inferred); amide I:20-II:6 (inferred); ring closure inferred)
- viability of SW480 cells (SW480 cells; at the highest concentration tested (20 μM)): only slight decreases

- IC50 (β-catenin): 41 nM
Molecule: CC[C@H](C)[C@@H]1NC(=O)[C@@H](NC(=O)[C@H](CCC(=O)O)NC(=O)[C@@H]2CCCN2C(=O)[C@H](Cc2ccc(O)cc2)NC(C)=O)CC(=O)NCCCC[C@@H](C(=O)N[C@@H](Cc2c[nH]cn2)C(=O)N[C@@H](CC(C)C)C(=O)N[C@@H](CCC(N)=O)C(=O)N[C@@H](CCCNC(=N)N)C(=O)N[C@H](C(=O)N[C@@H](Cc2csc3ccccc23)C(=O)N[C@H](CCCNC(=N)N)C(=O)NCCOCCOCC(=O)NCCOCCOCC(=O)N[C@@H](CN)C(N)=O)C(C)(C)C)NC(=O)[C@H](CC(=O)O)NC(=O)[C@H](CC(C)C)NC1=O [Peptide 27, Ac-YPEDILDKHLQRZ(3-Bta)(dR)-(miniPEG)2-Dap-NH2] (Ac-YPEDILDKHLQR[Tle][Bta][dR][AEEA][AEEA][Dap]-NH2; lactam 4-8)

Molecule: CC[C@H](C)[C@@H]1NC(=O)[C@@H](NC(=O)[C@H](CCC(=O)O)NC(=O)[C@@H]2CCCN2C(=O)[C@H](Cc2ccc(O)cc2)NC(=O)CNC(=O)CNC(C)=O)CC(=O)NCCCC[C@@H](C(=O)N[C@@H](Cc2c[nH]cn2)C(=O)N[C@@H](CC(C)C)C(=O)N[C@@H](CCC(N)=O)C(=O)N[C@@H](CCCNC(=N)N)C(=O)N[C@H](C(=O)N[C@H](C(=O)N[C@@H](CC(C)C)C(=O)NCCOCCOCC(=O)NCCOCCOCC(=O)N[C@@H](CNC(=O)[C@H](CCC(N)=O)NC(=O)[C@@H]2CCCN2C(=O)[C@@H]2CCCN2C(=O)[C@H](CCCNC(=N)N)NC(=O)[C@H](CCCNC(=N)N)NC(=O)[C@H](CCCNC(=N)N)NC(=O)[C@H](CCC(N)=O)NC(=O)[C@H](CCCNC(=N)N)NC(=O)[C@H](CCCNC(=N)N)NC(=O)[C@H](CCCCN)NC(=O)[C@H](CCCCN)NC(=O)[C@H](CCCNC(=N)N)NC(=O)CN)C(N)=O)[C@@H](C)CC)C(C)C)NC(=O)[C@H](CC(=O)O)NC(=O)[C@H](CC(C)C)NC1=O [peptide 4]
- effect on MCF7 cell viability (MCF7 cells): reduced the viability of MCF7 cells

- IC50 (β-catenin): 37 nM
Molecule: CC[C@H](C)[C@@H]1NC(=O)[C@@H](NC(=O)[C@H](CCC(=O)O)NC(=O)[C@@H]2CCCN2C(=O)[C@H](Cc2ccc(O)cc2)NC(C)=O)CC(=O)NCCCC[C@@H](C(=O)N[C@@H](Cc2c[nH]cn2)C(=O)N[C@@H](CC(C)C)C(=O)N[C@@H](CCC(N)=O)C(=O)N[C@@H](CCCNC(=N)N)C(=O)N[C@H](C(=O)N[C@@H](Cc2csc3ccccc23)C(=O)N[C@@H](CCCNC(=N)N)C(=O)NCCOCCOCC(=O)NCCOCCOCC(=O)N[C@@H](CN)C(N)=O)C(C)(C)C)NC(=O)[C@H](CC(=O)O)NC(=O)[C@H](CC(C)C)NC1=O [Peptide 26, Ac-YPEDILDKHLQRZ(3-Bta)R-(miniPEG)2-Dap-NH2] (Ac-YPEDILDKHLQR[Tle][Bta]R[AEEA][AEEA][Dap]-NH2; lactam 4-8)

- IC50 (GST-β-catenin): 3200 nM
B1: Peptide 7 (peptide)
peptide: Ac-GGYPECILDCKHLQDVILK[βAla]-NH2
modifications: lactam (positions not given here); linker 6-10 via m‑xylene; not fully specified; also: Asp-Lys staple, places not given here (residues shown as images)
notes: Double stapled peptide
